Experimental data reported in ChEMBL document CHEMBL1212896, “Discovery of novel cyanodihydropyridines as potent mineralocorticoid receptor antagonists” (J Med Chem, 2010).
Active and inactive are the calls of the source. No cut-off for these calls is given here.

Legend:
[1] = target: T1, Mineralocorticoid receptor (Homo sapiens, UniProt P08235)
T1 sequence (P08235 whole entry): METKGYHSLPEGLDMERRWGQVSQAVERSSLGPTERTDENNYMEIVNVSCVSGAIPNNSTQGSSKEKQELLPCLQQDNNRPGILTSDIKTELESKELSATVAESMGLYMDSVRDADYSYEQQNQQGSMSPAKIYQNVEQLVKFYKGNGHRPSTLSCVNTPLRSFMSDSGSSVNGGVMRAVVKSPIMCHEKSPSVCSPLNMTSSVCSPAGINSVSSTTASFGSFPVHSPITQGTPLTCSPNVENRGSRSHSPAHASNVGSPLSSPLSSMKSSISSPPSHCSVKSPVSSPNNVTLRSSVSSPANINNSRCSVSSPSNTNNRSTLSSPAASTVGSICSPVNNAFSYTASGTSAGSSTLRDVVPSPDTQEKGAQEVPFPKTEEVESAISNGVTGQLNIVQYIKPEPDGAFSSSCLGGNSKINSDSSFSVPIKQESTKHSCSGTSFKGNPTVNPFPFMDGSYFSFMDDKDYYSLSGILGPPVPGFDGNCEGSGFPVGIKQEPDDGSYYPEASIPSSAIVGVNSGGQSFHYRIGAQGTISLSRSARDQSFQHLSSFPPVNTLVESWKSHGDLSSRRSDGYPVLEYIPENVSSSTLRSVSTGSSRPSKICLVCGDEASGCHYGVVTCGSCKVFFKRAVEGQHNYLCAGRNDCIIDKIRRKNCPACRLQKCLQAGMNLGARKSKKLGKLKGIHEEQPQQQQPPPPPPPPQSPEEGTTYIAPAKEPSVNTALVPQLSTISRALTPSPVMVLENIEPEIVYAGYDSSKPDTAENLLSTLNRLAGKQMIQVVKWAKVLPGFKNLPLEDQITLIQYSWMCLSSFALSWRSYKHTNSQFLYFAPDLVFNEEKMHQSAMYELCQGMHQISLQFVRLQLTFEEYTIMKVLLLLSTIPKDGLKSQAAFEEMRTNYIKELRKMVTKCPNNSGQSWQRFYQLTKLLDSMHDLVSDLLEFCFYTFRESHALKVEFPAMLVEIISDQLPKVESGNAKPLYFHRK
Description: Antagonist activity at mineralocorticoid receptor LBD expressed in human HUH7 cells coexpressing GAL4 by luciferase reporter gene assay

[2] = Clearance in Sprague-Dawley rat at 5 mg/kg, iv; assay type: ADME, organism-based; parameters: dose 5 mg/kg, route intravenous; settings: in vivo
[3] = Half life in Sprague-Dawley rat at 5 mg/kg, iv; assay type: ADME, organism-based; parameters: dose 5 mg/kg, route intravenous; settings: in vivo
[4] = Volume of distribution at steady state in Sprague-Dawley rat at 5 mg/kg, iv; assay type: ADME, organism-based; parameters: dose 5 mg/kg, route intravenous; settings: in vivo, read-out: Vdss
[5] = test system: Rattus norvegicus; assay: Antihypertensive activity in Dahl salt-sensitive rat model assessed as decrease of systolic blood pressure at 60 mg/kg, po bid for 21 days; assay type: functional, organism-based; parameters: dose 60 mg/kg; settings: Artery
[6] = test system: Rattus norvegicus; assay: Protection of renal injury in Dahl salt-sensitive rat model assessed as reduction of urinal albumin excretion at 60 mg/kg, po bid for 21 days; assay type: functional, organism-based; parameters: dose 60 mg/kg

Compound | IC50 [1] | further results
COC(=O)C1=C(Cn2ccnc2)NC(C)=C(C#N)C1c1ccc(F)cc1Cl (stereo not given) | 9 nM | 
COC(=O)C1=C(Cn2cncn2)NC(C)=C(C#N)C1c1ccc(F)cc1Cl (stereo not given) | 123 nM | 
COC(=O)C1=C(C)NC(C)=C(C#N)C1c1ccc(F)cc1Cl (stereo not given) | 92 nM | 

Further molecules by falling IC50 [1], results first:

IC50 [1] | Compound | further results
64 nM | COC(=O)C1=C(Cn2cnnn2)NC(C)=C(C#N)C1c1ccc(F)cc1Cl (stereo not given) | clearance [2]: 14.1 mL/min/kg; half-life [3]: 4.84 h; Vd [4]: 0.9 L/kg; Activity [5]: Active; Activity [6]: Active
64 nM | CCCC1=C(C(=O)OC)C(c2ccccc2Cl)C(C#N)=C(C)N1 (stereo not given) | 
